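Where inhibition never reached the appropriate level, the endpoint shown equals the highest concentration tested. Otherwise, values were interpolated linearly from a five-concentration, 48-hour dose response in 96-well plates. The concentration for 50% growth inhibition is given as GI50.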 Calls of active or inactive are those of the source. Cut-off read from the data, not from the text of the source: active = GI50 up to about 1.1 µM and inactive = higher.
Columns and labels:
Assay in all cases: NCI-60 cell line screen, 48 h
NCI-H23 = tested on: NCI-H23
HOP-92 = tested on: HOP-92
UACC-257 = tested on: UACC-257
U-251 = tested on: U-251
T47D = tested on: T47D
K562 = tested on: K562
SK-OV-3 = tested on: SK-OV-3
MDA-MB-435 = tested on: MDA-MB-435
UO-31 = tested on: UO-31
Hs-578T = tested on: Hs-578T
KM12 = tested on: KM12
NCI-H460 = tested on: NCI-H460
MDA-MB-231 = tested on: MDA-MB-231
SK-MEL-28 = tested on: SK-MEL-28
PC-3 = tested on: PC-3
SW-620 = tested on: SW-620
CAKI-1 = tested on: CAKI-1
RPMI-8226 = tested on: RPMI-8226
EKVX = tested on: EKVX
OVCAR-8 = tested on: OVCAR-8

SMILES | GI50 (NCI-H23) | GI50 (HOP-92) | GI50 (UACC-257) | GI50 (U-251) | GI50 (T47D) | GI50 (K562) | GI50 (SK-OV-3) | GI50 (MDA-MB-435) | GI50 (UO-31) | GI50 (Hs-578T) | GI50 (KM12) | GI50 (NCI-H460) | GI50 (MDA-MB-231) | GI50 (SK-MEL-28) | GI50 (PC-3) | GI50 (SW-620) | GI50 (CAKI-1) | GI50 (RPMI-8226) | GI50 (EKVX) | GI50 (OVCAR-8)
Cc1cc(=O)[nH]c(-n2[nH]c3c(c2=O)CCCC3)n1 | 95.9 µM (inactive) | 31 µM (inactive) | 66.5 µM (inactive) | 58.5 µM (inactive) | > 100 µM (inactive) | 52.2 µM (inactive) | 93.1 µM (inactive) | > 100 µM (inactive) | 59.6 µM (inactive) | 92.9 µM (inactive) | > 100 µM (inactive) | 25.9 µM (inactive) | 67.9 µM (inactive) | 45.7 µM (inactive) | 68.1 µM (inactive) | 56 µM (inactive) | 70.1 µM (inactive) | 74.1 µM (inactive) | 58.2 µM (inactive) | –
CSc1nnc(SC)nn1 | 20.8 µM (inactive) | 3.84 µM (inactive) | 16.6 µM (inactive) | 20.6 µM (inactive) | 2.76 µM (inactive) | 8.04 µM (inactive) | 21.4 µM (inactive) | 16.9 µM (inactive) | 15.5 µM (inactive) | 27.2 µM (inactive) | 15.3 µM (inactive) | 18.2 µM (inactive) | 18.2 µM (inactive) | – | 18.5 µM (inactive) | 17.2 µM (inactive) | 16.9 µM (inactive) | 13.3 µM (inactive) | 16.6 µM (inactive) | 18.6 µM (inactive)
C/C(=C/CNc1ncnc2c1ncn2CCC#N)CO | > 100 µM (inactive) | > 100 µM (inactive) | > 100 µM (inactive) | – | > 100 µM (inactive) | > 100 µM (inactive) | > 100 µM (inactive) | > 100 µM (inactive) | > 100 µM (inactive) | > 100 µM (inactive) | > 100 µM (inactive) | > 100 µM (inactive) | > 100 µM (inactive) | > 100 µM (inactive) | > 100 µM (inactive) | > 100 µM (inactive) | > 100 µM (inactive) | > 100 µM (inactive) | > 100 µM (inactive) | > 100 µM (inactive)
CC(C)(CO)CNc1nc(N)nc(Cl)c1C=O | 40.4 µM (inactive) | 26.2 µM (inactive) | 35.4 µM (inactive) | 32.8 µM (inactive) | 42.9 µM (inactive) | 5.19 µM (inactive) | – | 25.9 µM (inactive) | 62.1 µM (inactive) | 22.9 µM (inactive) | 90.4 µM (inactive) | 36.4 µM (inactive) | 30.1 µM (inactive) | 24.4 µM (inactive) | 16.8 µM (inactive) | 33.5 µM (inactive) | 11.9 µM (inactive) | 60.5 µM (inactive) | 45.9 µM (inactive) | 22.5 µM (inactive)
CSC1=C(C#N)C(=O)N(c2ccc(C)cc2)C(=O)C1C#N (centres undefined) | > 100 µM (inactive) | 25 µM (inactive) | > 100 µM (inactive) | > 100 µM (inactive) | 41.2 µM (inactive) | > 100 µM (inactive) | > 100 µM (inactive) | > 100 µM (inactive) | > 100 µM (inactive) | 28.6 µM (inactive) | > 100 µM (inactive) | > 100 µM (inactive) | > 100 µM (inactive) | > 100 µM (inactive) | > 100 µM (inactive) | > 100 µM (inactive) | 30.9 µM (inactive) | > 100 µM (inactive) | > 100 µM (inactive) | –
COC(=O)C12OC3CO[Si](C(C)C)(C(C)C)O[Si](C(C)C)(C(C)C)OC3C1Oc1nc(=O)ccn12 (centres undefined) | 15.5 µM (inactive) | 14.3 µM (inactive) | 15.6 µM (inactive) | 16.1 µM (inactive) | 18.8 µM (inactive) | 15.4 µM (inactive) | 17.3 µM (inactive) | 17.1 µM (inactive) | 16.3 µM (inactive) | < 0.01 µM (active) | 15.7 µM (inactive) | – | 15.5 µM (inactive) | 16.7 µM (inactive) | 15.3 µM (inactive) | 16 µM (inactive) | 17.7 µM (inactive) | 13.7 µM (inactive) | 16.7 µM (inactive) | 15.5 µM (inactive)

From ChEMBL document CHEMBL1201862, “PubChem BioAssay data set” (2004)
